# Results reported in paper PMC5303003 (Bioorganic & medicinal chemistry, 2017).
# Like-named read-outs stand apart in the source and are kept apart here.
# Key:
# σ1 receptor [1] = molecular target: T1, σ1 receptor (Cavia porcellus, UniProt Q60492); settings: read-out: Ki-σ1 of racemic compounds, previously reported; cited from earlier work
# σ1 receptor [2] = molecular target: T1, σ1 receptor; test: σ1 receptor competitive binding assay; settings: Ki σ1, (+)-isomer, guinea pig brain membranes, mean ± SEM
# [3] = molecular target: emopamil binding protein (EBP); settings: read-out: Ki for emopamil binding protein (EBP); cited from earlier work
# [4] = molecular target: vesicular acetylcholine transporter (VAChT); settings: cited from earlier work
# σ2 receptor = settings: read-out: Ki-σ2; cited from earlier work
# σ1 receptor [5] = test: MicroPET blocking study with σ1 ligand pretreatment in nonhuman primate; assay type: in vivo, cynomolgus macaque; settings: 1.0 mg/kg i.v. 5 min prior to tracer injection, NHP, versus baseline
# σ1 receptor [6] = settings: cited from earlier work; for Ki: read-out: Ki-σ1
# T1 sequence (Q60492 whole entry): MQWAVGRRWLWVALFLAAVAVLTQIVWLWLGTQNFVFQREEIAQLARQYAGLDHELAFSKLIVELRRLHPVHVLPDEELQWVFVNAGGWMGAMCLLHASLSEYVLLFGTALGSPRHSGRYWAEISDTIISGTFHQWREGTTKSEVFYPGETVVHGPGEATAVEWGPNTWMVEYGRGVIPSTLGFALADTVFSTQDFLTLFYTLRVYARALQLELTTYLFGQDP
smiles,measurement,setting,value
O=C(c1ccc(F)cc1)C1CCN(C2CCN(Cc3ccc(F)cc3)CC2O)CC1 (racemic) [14a],Ki,σ1 receptor [1],0.48 nM
"O=C(c1ccc(F)cc1)C1CCN(C2CCN(Cc3ccc(F)cc3)CC2O)CC1 (single isomer, unassigned; (+)) [(+)-14a]",Ki,σ1 receptor [2],0.14 ± 0.02 nM
COc1ccc(CCN2CCN(CCCc3ccccc3)CC2)cc1OC [SA4503],Ki,[3],1.7 nM
same,Ki,[4]; read-out: Ki for VAChT,50 nM
"O=C(Cc1ccccc1F)NC1CCC(Cc2ccccc2)CC1 (centres unmarked) [Yun122, N-(4-benzylcyclohexyl)-2-(2-fluorophenyl)acetamide]",Ki,σ2 receptor,667 nM
same,effect of pretreatment on brain uptake of (−)-[18F]TZ3108,σ1 receptor [5],significantly reduced
same,Ki,σ1 receptor [6],3.6 nM
"COc1ccc(CCN2CCN(CCCc3ccccc3)CC2)cc1O[11CH3] [[^11C]SA4503, 1-(4-methoxy-3-(methoxy-^11C)phenethyl-^11C)-4-(3-phenyl-propyl)piperazine]",selectivity for σ1 over VAChT,σ1 receptor [6],11 fold
same,selectivity for σ1 over σ2 receptor,σ1 receptor [6],55 fold
"O=c1sc2cc(CCCF)ccc2n1CCN1CCCCCC1 [[^18F]FTC-146, ^18F-6-(3-fluoropropyl)-3-(2-(azepan-1 yl)ethyl)benzo-[d]thiazol-2(3H)-one]",Ki,[4]; read-out: Ki-VAChT,450 nM
same,Ki,σ1 receptor [6],0.0025 nM
